Results on 28 molecules are retold here after US20260015372A1, “Organophosphorous Compounds and Uses Thereof” (priority 2022, published 2026).

Data set [1] addresses T1, ACHE (Homo sapiens (Human), UniProt P22303). As to the kind of experiment: ACHE inhibition, colorimetric with substrate and Ellman's reagent. Type of data set: biochemical. The conditions noted are these: for Inhibition of ACHE: [ATC] = 0.1 mM.
The next data set relates to β-amyloid plaque. Put plainly: In vivo β-amyloid plaque formation, immunohistochemistry. The arrangement: species or system transgenic Alzheimer's mice. An excerpt: Images show immunohistochemistry of 13-month transgenic Alzheimer's disease mice brains at subiculum region of hippocampus, treated with DB2CIPP and DMSO control beginning at 9 months. […] Selective inhibition of butyrylcholinesterase in the brain is widely documented as a potential treatment for Alzheimer's disease and dementia, by improving cognition and modulating neuropathological markers of the disease. As an inhibitor of butyrylcholinesterase, DB2CIPP may also be used to inhibit or slow the progression of the Alzheimer's-like symptoms seen in long COVID.

In data set [2] the target is serum acetylcholinesterase (Mus musculus (Mouse), UniProt P21836). Put plainly: In vivo serum acetylcholinesterase activity. Also on record: species or system transgenic Alzheimer's mice. The conditions noted are these: 10 mg and 20 mg doses over 11 months and 13 months; listed as DB2CIPP. From the text:
(§1) DB2CIPP Testing Results Inhibition of BChE in brain and serum. Di-n-butyl 2 chlorophenyl phosphate (DB2CIPP) inhibits BChE in brain and serum without inhibiting AChE in serum (see FIG. 5, FIG. 7, and FIG. 8).

Data set [3] concerns the target T2, BCHE (Homo sapiens (Human), UniProt P06276). As to the kind of experiment: biochemical. Type of data set: biochemical. The note with it: for Mode of Inhibition: Irreversible = enzyme covalently modified. The method, then: The compounds referred to herein have BCHE inhibitory activity. To determine the inhibitory values, enzymes were incubated for 2 hours in the presence of varying concentrations of compound prior to activity measurements. Activity is then measured colorimetrically upon addition of substrate and Ellman's reagent.

Data set [4] in a line: In vivo blood brain barrier crossing. The note with it: other in vivo tests.
For the next data set, the target named is Aβ (1-40) peptide (Homo sapiens, UniProt P05067). As to the kind of experiment: Thioflavin T fluorescence assay of β-amyloid peptide aggregation. The conditions noted are these: 30 μM peptide, 25° C., 2 hours, ThT fluorescence. The data set is classed as biochemical. The method, then:
Neurotoxic plaques, i.e., aggregates of β-amyloid peptide, bind thioflavin T (ThT) and show significant fluorescence.
Aβ (1-40) peptide was solubilized in hexafluoroisopropanol (HFIP). A solution of 25 μM ThT was prepared in 0.025 M phosphate buffer, pH 6.0. Peptide was dissolved in 0.01 M PBS; 0.1M NaCl, pH7.4 to a final concentration of 30 μM. Inhibitors were prepared in methanol. The final concentration of HFIP and methanol were 2% and 10% (v/v) respectively. The control sample consisted peptide incubated in PBS/2% HFI/10% methanol without inhibitor. All samples were mixed and incubated at 25° C. for 2 hours. Fluorescence was measured by mixing 470 μL of ThT solution with 30 μL of the protein solution. Excitation and emission wavelengths were 440 nm with 5 nm slit width and 485 nm with 10 nm slit width, respectively. Biological activity was calculated as percent of inhibitory activity of inhibitor at varying concentration was calculated using the following equation: Vi=100−[(Fi−Fb)/F0]×100. The higher the Vi, the less aggregation of amyloid peptide.

Data set [5] addresses serum butyrylcholinesterase (Mus musculus (Mouse), UniProt Q03311). Put plainly: In vivo serum butyrylcholinesterase activity. The arrangement: species or system transgenic Alzheimer's mice. The conditions noted are these: 10 mg and 20 mg doses over 11 months and 13 months; listed as DB2CIPP.
Text: as §1

The target of data set [6] is hippocampal butyrylcholinesterase (Mus musculus (Mouse), UniProt Q03311). As to the kind of experiment: In vivo hippocampal butyrylcholinesterase activity. Also on record: species or system transgenic Alzheimer's mice. The note with it: 10 mg and 20 mg doses over 11 months; listed as DB2CIPP.
Text: as §1

Data set [7] addresses T2, BCHE. The data set is classed as biochemical. The note with it: 20 μM inhibitor, 2 minutes; Activity of Inhibitor incubated enzyme/Activity of unincubated enzyme.
The target of data set [8] is T1, ACHE. Put plainly: Relative Activity of ACHE, 20 μM inhibitor for 2 minutes. The data set is classed as biochemical. The note with it: Activity of Inhibitor incubated enzyme/Activity of unincubated enzyme. The method, then: In order to compare the relative inhibitory activity of the five compounds 27, 35, 89, 90 and 92 against BCHE and ACHE, a solution of each enzyme was incubated with 20 μM of the inhibitor for 2 minutes, and the enzyme activity determined. Table 5 lists the Relative Activity (=Activity of Inhibitor incubated enzyme/Activity of unincubated enzyme).

Setting [9] is: enzyme incubated 2 hours with compound.
The mark [10] stands for this setting: enzyme incubated 2 hours with compound, read-out: BCHE Ki ± SEM.

“Also recorded” adds a separate entry of the source. Read-outs that look alike come from different tables or passages of the source.

T1 sequence (P22303 32-614): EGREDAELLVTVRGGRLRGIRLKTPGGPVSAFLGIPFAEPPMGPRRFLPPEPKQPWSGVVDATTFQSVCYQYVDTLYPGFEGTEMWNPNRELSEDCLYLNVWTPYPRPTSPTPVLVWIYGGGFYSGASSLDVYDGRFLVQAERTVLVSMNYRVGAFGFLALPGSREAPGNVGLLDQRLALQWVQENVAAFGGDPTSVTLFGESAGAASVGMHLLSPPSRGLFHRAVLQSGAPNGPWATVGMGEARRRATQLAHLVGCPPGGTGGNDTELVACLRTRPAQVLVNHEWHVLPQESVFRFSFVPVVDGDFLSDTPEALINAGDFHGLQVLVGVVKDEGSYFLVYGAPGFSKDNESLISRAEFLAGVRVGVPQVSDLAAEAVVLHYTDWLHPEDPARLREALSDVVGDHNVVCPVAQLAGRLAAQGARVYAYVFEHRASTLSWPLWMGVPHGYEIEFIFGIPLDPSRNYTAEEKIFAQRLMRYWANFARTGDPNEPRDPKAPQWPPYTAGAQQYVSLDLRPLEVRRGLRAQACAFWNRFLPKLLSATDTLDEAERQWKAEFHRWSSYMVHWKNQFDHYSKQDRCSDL
T2 sequence (P06276 29-602, species assumed): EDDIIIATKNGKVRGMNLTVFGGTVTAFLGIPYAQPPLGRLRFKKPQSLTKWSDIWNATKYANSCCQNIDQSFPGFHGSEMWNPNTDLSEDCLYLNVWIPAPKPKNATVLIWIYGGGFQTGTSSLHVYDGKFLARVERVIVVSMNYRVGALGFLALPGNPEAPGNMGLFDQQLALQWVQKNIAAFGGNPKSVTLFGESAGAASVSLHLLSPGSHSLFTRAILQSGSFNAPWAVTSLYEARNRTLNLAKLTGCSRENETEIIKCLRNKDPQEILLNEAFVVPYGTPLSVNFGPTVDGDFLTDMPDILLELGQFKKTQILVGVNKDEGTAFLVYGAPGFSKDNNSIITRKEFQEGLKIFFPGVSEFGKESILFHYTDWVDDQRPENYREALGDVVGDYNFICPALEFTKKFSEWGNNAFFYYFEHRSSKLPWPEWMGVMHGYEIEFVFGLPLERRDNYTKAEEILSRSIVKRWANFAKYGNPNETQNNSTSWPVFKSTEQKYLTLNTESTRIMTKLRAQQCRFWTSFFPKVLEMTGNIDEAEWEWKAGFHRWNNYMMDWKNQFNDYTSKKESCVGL
Sequence of serum acetylcholinesterase (P21836 32-614 limits assumed): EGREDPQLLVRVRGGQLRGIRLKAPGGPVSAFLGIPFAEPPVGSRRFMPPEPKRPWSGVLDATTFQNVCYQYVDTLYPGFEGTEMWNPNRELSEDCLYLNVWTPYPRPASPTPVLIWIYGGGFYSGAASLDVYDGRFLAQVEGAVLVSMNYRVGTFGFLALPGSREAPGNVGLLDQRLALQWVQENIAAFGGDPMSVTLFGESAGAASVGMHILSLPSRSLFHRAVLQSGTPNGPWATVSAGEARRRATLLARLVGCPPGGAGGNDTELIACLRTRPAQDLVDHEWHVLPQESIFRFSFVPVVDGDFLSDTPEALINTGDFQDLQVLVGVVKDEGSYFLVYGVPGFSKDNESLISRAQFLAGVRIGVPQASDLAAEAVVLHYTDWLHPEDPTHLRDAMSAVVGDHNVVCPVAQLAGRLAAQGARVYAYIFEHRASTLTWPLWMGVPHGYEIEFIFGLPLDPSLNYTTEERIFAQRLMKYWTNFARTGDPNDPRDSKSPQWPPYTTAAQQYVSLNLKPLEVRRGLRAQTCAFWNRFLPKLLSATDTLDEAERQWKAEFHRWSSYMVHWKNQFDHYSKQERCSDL
Sequence of hippocampal butyrylcholinesterase (Q03311 30-603 limits assumed): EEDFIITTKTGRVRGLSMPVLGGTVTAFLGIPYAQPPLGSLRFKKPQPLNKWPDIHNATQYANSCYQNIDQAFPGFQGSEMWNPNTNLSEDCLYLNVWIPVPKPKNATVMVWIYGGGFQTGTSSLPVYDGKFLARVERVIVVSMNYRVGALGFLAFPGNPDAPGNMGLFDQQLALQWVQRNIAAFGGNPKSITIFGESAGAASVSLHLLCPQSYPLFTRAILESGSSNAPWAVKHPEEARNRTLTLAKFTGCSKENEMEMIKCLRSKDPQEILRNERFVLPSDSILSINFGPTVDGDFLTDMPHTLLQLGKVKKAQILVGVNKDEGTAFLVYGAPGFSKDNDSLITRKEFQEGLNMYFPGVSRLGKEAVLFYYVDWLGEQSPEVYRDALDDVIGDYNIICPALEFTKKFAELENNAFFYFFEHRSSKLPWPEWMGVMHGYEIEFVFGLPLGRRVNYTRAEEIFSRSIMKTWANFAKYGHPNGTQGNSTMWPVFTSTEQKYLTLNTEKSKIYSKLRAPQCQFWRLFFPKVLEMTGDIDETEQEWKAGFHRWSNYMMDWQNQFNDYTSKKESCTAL
Sequence of serum butyrylcholinesterase (Q03311 30-603 limits assumed): as above

Turning to `CCCCOP(=O)(OCC)Oc1ccccc1` (racemic) [Compound 99, (±)-n-Butyl ethyl phenyl phosphate], the “Inhibition of ACHE” value on ACHE [1] (inhibitor 3 mM) is “^f<8% inhibition at [2] = 3 mM and [ATC] = 0.1 mM”.

Take `CCCCOP(=O)(OCCCC)Oc1ccccc1Cl` [Compound 9, Di-n-butyl 2-chlorophenyl phosphate]: the “Beta amyloid plaques immunopositive staining in the hippocampus” value in the data set on β-amyloid plaque (10 mg or 20 mg doses over 13 months, vs untreated mice) is given as “reduced”. For the same molecule, the “Inhibition of β-amyloid plaque formation” value in the data set with β-amyloid plaque (13-month mice, subiculum region of hippocampus, treated beginning at 9 months, vs DMSO control, listed as DB2CIPP) is listed as “significant inhibition”. Besides, the half-inhibitory concentration (IC50) was determined as 47 µM against ACHE [1], 47 µM on ACHE [1] (setting [9]), 0.00069 µM against BCHE [3] and 0.00069 µM at BCHE [3] (setting [9]). Further, in data set [2], the Serum acetylcholinesterase activity entry was “substantially not altered; also recorded: not significantly altered”. Moreover, on BCHE [3] (ACHE IC50 vs BCHE IC50), the “Selectivity toward BCHE over ACHE” value was “approximately 68,000 fold”. For the same molecule, at BCHE [3], the “Mode of Inhibition” value was “Irreversible^g”. Moreover, the “Ability to cross the blood brain barrier (BBB)” value in data set [4] was “cross the blood brain barrier”. Besides, on Aβ (1-40) peptide, the “Inhibition of aggregation of β-amyloid peptides” value is on record as “did not inhibit”. Moreover, in data set [5], the “Inhibition of serum butyrylcholinesterase activity” value is “significant inhibition”. Further, in data set [6], the “Inhibition of hippocampal butyrylcholinesterase activity” value was “significant inhibition”.

Regarding `CCCCOP(=O)(OCCCC)Oc1cc(C)cc(C)c1` [Compound 27, Di-n-butyl 3,5-dimethylphenyl phosphate], on BCHE [7], the “Relative Activity of BCHE” value is 0.45. Moreover, at ACHE [8], the “Relative Activity of ACHE” value is recorded as 0.93. Moreover, on BCHE [3], affinity was put at a Ki of 1 µM and the “Mode of Inhibition” value is “Reversible”.

Take `CCCCOP(=O)(OCCCC)Oc1ccc2ccccc2c1` [Compound 35, Di-n-butyl 2-napthyl phosphate]: at BCHE [7], the “Relative Activity of BCHE” value stood at 0.10. For the same molecule, the “Relative Activity of ACHE” value at ACHE [8] is 0.84. For the same molecule, on BCHE [3], the Ki worked out at 1.9 µM and the “Mode of Inhibition” value was “Reversible”.

Regarding `CCOP(=O)(OCC)OCCCOP(=O)(OCC)OCC` [Compound 53, Tetraethyl propane-1,3-diyl bisphosphate], the IC50 on BCHE [3] (setting [9]) was 8.26 µM.

For the molecule `CCOP(=O)(OCC)OCCCCOP(=O)(OCC)OCC` [Compound 54, Tetraethyl butane-1,4-diyl bisphosphate], the IC50 at BCHE [3] (setting [9]) was determined as 8.2 µM.

Turning to `CCOP(=O)(OCC)OCCCCCOP(=O)(OCC)OCC` [Compound 55, Tetraethyl pentane-1,5-diyl bisphosphate], on BCHE [3] (setting [9]), the half-inhibitory concentration (IC50) came out at 35.4 µM.

For `CCOP(=O)(OCC)OCCCCCCOP(=O)(OCC)OCC` [Compound 56, Tetraethyl hexane-1,6-diyl bisphosphate], the “Mode of Inhibition” value on BCHE [3] was “Reversible”. Besides, the Ki at BCHE [3] (setting [10]) amounted to 228 µM. Besides, the “Inhibition of aggregation of β-amyloid peptides” value at Aβ (1-40) peptide is on record as “significantly inhibited”.

`CCOP(=O)(OCC)OCCCCCCCOP(=O)(OCC)OCC` [Compound 57, Tetraethyl heptane-1,7-diyl bisphosphate]: on BCHE [3] (setting [9]), the IC50 was found to be 40.1 µM.

Take `CCOP(=O)(OCC)OCCOCCOP(=O)(OCC)OCC` [Compound 58, Tetraethyl 3-oxapentane-1,5-diyl bisphosphate]: the IC50 at BCHE [3] (setting [9]) is 11.1 µM.

`CCCCOP(=O)(OCCCC)OCCCOP(=O)(OCCCC)OCCCC` [Compound 59, Tetrabutyl propane-1,3-diyl bisphosphate]: at BCHE [3] (setting [9]), the IC50 was determined as 0.79 µM.

Take `CCCCOP(=O)(OCCCC)OCCCCOP(=O)(OCCCC)OCCCC` [Compound 60, Tetrabutyl butane-1,4-diyl bisphosphate]: the IC50 at BCHE [3] (setting [9]) was 88.1 µM.

Regarding `CCCCOP(=O)(OCCCC)OCCCCCOP(=O)(OCCCC)OCCCC` [Compound 61, Tetrabutyl pentane-1,5-diyl bisphosphate], the IC50 on BCHE [3] (setting [9]) was found to be 2.72 µM.

Take `CCCCOP(=O)(OCCCC)OCCCCCCOP(=O)(OCCCC)OCCCC` [Compound 62, Tetrabutyl hexane-1,6-diyl bisphosphate]: the “Mode of Inhibition” value at BCHE [3] is “Reversible”. At BCHE [3] (setting [10]), the Ki is 4 µM. Further, the “Inhibition of aggregation of β-amyloid peptides” value at Aβ (1-40) peptide is given as “significantly inhibited”.

As to `CCCCOP(=O)(OCCCC)OCCCCCCCOP(=O)(OCCCC)OCCCC` [Compound 63, Tetrabutyl heptane-1,7-diyl bisphosphate], the IC50 at BCHE [3] (setting [9]) amounted to 3.95 µM.

Take `CCCCOP(=O)(OCCCC)OCCCCCCCCOP(=O)(OCCCC)OCCCC` [Compound 64, Tetrabutyl octane-1,8-diyl bisphosphate]: the IC50 on BCHE [3] (setting [9]) was 2.39 µM.

For the molecule `CCCCOP(=O)(OCCCC)OCCOCCOP(=O)(OCCCC)OCCCC` [Compound 65, Tetrabutyl 3-oxapentane-1,5-diyl bisphosphate], the IC50 on BCHE [3] (setting [9]) came to 31.2 µM.

For `CCCCOP(=O)(OCCC=CCCOP(=O)(OCCCC)OCCCC)OCCCC` [Compound 66, Tetrabutyl 3-hexene-1,6-diyl bisphosphate], the IC50 at BCHE [3] (setting [9]) turned out to be 1.2 µM.

In the case of `O=P(OCCCCCCOP(=O)(Oc1ccccc1)Oc1ccccc1)(Oc1ccccc1)Oc1ccccc1` [Compound 67, Tetraphenyl hexane-1,6-diyl bisphosphate], the “Mode of Inhibition” value on BCHE [3] is given as “Reversible”. Besides, at Aβ (1-40) peptide, the “Inhibition of aggregation of β-amyloid peptides” value is on record as “significantly inhibited”.

In the case of `CCCCOP(=O)(Cc1cccc2ccccc12)OCCCC` [Compound 89, Di-n-butyl 1-naphthylmethylphosphonate], the “Relative Activity of BCHE” value on BCHE [7] came to 0.47. The “Relative Activity of ACHE” value on ACHE [8] is given as 0.96. The “Mode of Inhibition” value at BCHE [3] is “Irreversible^g”.

`CCCCOP(=O)(Cc1ccc2ccccc2c1)OCCCC` [Compound 90, Di-n-butyl 2-naphthylmethylphosphonate]: the “Relative Activity of BCHE” value on BCHE [7] is 0.45. Moreover, at ACHE [8], the “Relative Activity of ACHE” value is recorded as 0.95. Also, the “Mode of Inhibition” value at BCHE [3] was “Irreversible^g”.

As to `CCCCOP(=O)(Cc1cc(C)cc(C)c1)OCCCC` [Compound 92, Di-n-butyl 3,5-dimethylbenzylphosphonate], the “Relative Activity of BCHE” value on BCHE [7] stood at 0.64. Besides, on ACHE [8], the “Relative Activity of ACHE” value was determined as 0.99. Besides, the “Mode of Inhibition” value on BCHE [3] is listed as “Irreversible^g”.

`COP(=O)(OC)Oc1ccccc1` [Compound 93, Dimethyl phenyl phosphate]: the Ki at ACHE [1] amounted to 6500 µM; at BCHE [3], 1700 µM.

Regarding `CCOP(=O)(OCC)Oc1ccccc1` [Compound 94, Diethyl phenyl phosphate], the Ki at ACHE [1] amounted to 3100 µM; on BCHE [3], 55 µM.

As to `CCCOP(=O)(OCCC)Oc1ccccc1` [Compound 95, Di-n-propyl phenyl phosphate], at ACHE [1] (inhibitor 5 mM), the “Inhibition of ACHE” value was “^b<20% Inhibition at [lc] = 5 mM and [ATC] = 0.1 mM”.

`CCCCOP(=O)(OCCCC)Oc1ccccc1` [Compound 96, Di-n-butyl phenyl phosphate]: the “Inhibition of ACHE” value at ACHE [1] (inhibitor 1 mM) was “^cNo inhibition at [1d] = 1 mM and [ATC] = 0.1 mM”.

With `CCCCCOP(=O)(OCCCCC)Oc1ccccc1` [Compound 97, Di-n-pentyl phenyl phosphate], the “Inhibition of ACHE” value at ACHE [1] (inhibitor 3 mM) is “^d<8% Inhibition at [le] = 3 mM and [ATC] = 0.1 mM”. Besides, on BCHE [3], affinity was put at a Ki of 6 µM and the “Mode of Inhibition” value is “^aPartial competitive”.

With `O=P(Oc1ccccc1)(OC1CCCCC1)OC1CCCCC1` [Compound 98, Di-cyclohexyl phenyl phosphate], on ACHE [1] (inhibitor 3 mM), the “Inhibition of ACHE” value is “^eNo inhibition at [1f] = 3 mM and [ATC] = 0.1 mM”. Further, at BCHE [3], the inhibition constant (Ki) amounted to 7 µM and the “Mode of Inhibition” value is recorded as “^aPartial competitive”.

The IC50 is the midpoint of a concentration-inhibition curve. The Ki is the dissociation constant of the complex between target and ligand, obtained from inhibition or displacement.
